US8754227B2, “Metalloenzyme inhibitor compounds” (Viamet Pharmaceuticals, Inc., priority 2010, dated 2014)
Values after ≈ are worked out from the molar mass of the structure shown.

Key:
C. albicans = experiment: Minimum Inhibitory Concentration (MIC), CLSI M27-A2; type: cell-based; conditions: Candida albicans; about 50% growth reduction; approximately 48 h at 35°C
Experimental: Compounds were assessed for their ability to inhibit the growth of common strains of fungus, C. albicans using a standardized procedure (CLSI M27-A2). Stock solutions of the test compounds and standards were prepared in DMSO at 1,600 μg/mL (C. albicans). Eleven, serial, one-half dilutions of compounds were prepared in 96-well plates in RPMI+MOPS. The assay concentration ranges were […] (C. albicans). Cell suspensions of C. albicans were prepared and added to each well at concentrations of approximately 3.7×10^3 colony-forming-units per milliliter (cfu/mL). All testing was in duplicate. The inoculated plates were incubated for approximately 48 h at 35±1° C. At the completion of incubation the wells of each plate were evaluated visually for the presence of fungal growth. […] For QC purposes C. krusei isolate ATCC 6258 (4.0×10^3 efu/mL) was included in the VOR assay.

CYP2C19 = CYP2C19 (Homo sapiens (Human), UniProt P33261); experiment: Inhibition of liver cytochrome P450 enzymes, pooled human liver microsomes; type: in vitro ADME
Chain of CYP2C19 (P33261 whole entry): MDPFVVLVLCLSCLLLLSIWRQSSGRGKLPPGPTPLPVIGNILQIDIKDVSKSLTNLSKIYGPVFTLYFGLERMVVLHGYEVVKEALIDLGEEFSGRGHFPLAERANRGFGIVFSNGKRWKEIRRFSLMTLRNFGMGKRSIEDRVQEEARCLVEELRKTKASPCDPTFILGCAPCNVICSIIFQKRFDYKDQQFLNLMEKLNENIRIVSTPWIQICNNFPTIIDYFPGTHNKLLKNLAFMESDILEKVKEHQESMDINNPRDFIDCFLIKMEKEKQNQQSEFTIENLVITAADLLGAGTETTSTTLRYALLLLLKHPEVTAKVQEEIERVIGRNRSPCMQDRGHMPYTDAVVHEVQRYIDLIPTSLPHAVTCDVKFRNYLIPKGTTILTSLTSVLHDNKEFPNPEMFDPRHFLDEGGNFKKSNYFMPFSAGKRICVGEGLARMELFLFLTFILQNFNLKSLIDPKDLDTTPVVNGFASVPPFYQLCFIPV
Experimental: (§1) Solutions of each test compound were separately prepared at concentrations of 20000, 6000, 2000, 600, 200, and 60 μM by serial dilution with DMSO:MeCN (50:50 v/v). […] The mixed inhibitor solutions were then diluted 20-fold with DMSO:MeCN:deionized water (5:5:180 v/v/v) to concentrations of 300, 100, 30, 10, 3, 1, 0.3, and 0.1 μM. The percent of organic solvent attributable to the test compound or inhibitor mixture in the final reaction mixture was 2% v/v. Pooled human liver microsome suspension (20 mg/mL) was diluted with phosphate buffer to obtain a 5 mg/mL suspension. A solution of NADPH was prepared in phosphate buffer at a concentration of 5 mM. Separate stock solutions of each substrate were prepared in DMSO:MeCN (50:50 v/v), mixed, and diluted in phosphate buffer to obtain a single solution containing each substrate at five times its experimentally determined Km concentration. The percent of organic solvent attributable to substrate mixture in the final reaction mixture was 1% v/v. Substrate solution and microsome suspension were combined in a 1:1 volume ratio, mixed, and distributed to reaction wells of a PCR plate. Individual test compound or combined inhibitor solutions at each concentration were added to the wells and mixed by repetitive aspirate-dispense cycles. […] Reaction mixtures were allowed to equilibrate at 37° C. for approximately two minutes before adding NADPH solution to initiate reaction, followed by pipette mixing of reaction mixture. Ten minutes after addition of NADPH, the reaction mixtures were quenched with cold acetonitrile. […] A portion of the supernatant was analyzed by gradient reverse-phase HPLC with detection by electrospray ionization triple quadrupole mass spectrometry in the positive ion mode. Data was fitted to sigmoid dose-response curves and the inhibitory potency of each test compound was determined as its IC50 value.

CYP2C9 = CYP2C9 (Homo sapiens (Human), UniProt P11712); experiment: as above; type: in vitro ADME
Chain of CYP2C9 (P11712 whole entry): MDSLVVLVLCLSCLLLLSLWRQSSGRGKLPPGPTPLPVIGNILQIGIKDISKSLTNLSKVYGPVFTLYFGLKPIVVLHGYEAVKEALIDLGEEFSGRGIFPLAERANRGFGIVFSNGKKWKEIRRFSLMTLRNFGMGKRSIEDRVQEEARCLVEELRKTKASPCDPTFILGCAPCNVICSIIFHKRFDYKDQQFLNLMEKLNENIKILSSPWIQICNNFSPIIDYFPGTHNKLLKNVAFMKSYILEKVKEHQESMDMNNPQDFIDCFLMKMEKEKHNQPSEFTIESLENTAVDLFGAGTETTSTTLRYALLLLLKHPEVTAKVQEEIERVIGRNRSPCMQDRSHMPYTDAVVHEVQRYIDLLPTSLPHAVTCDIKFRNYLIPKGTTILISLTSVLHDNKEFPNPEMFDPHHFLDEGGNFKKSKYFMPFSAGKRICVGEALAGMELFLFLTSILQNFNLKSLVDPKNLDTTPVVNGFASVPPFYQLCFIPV
Experimental: as §1

CYP3A4 = CYP3A4 (Homo sapiens (Human), UniProt P08684); experiment: as above; type: in vitro ADME
Chain of CYP3A4 (P08684 whole entry): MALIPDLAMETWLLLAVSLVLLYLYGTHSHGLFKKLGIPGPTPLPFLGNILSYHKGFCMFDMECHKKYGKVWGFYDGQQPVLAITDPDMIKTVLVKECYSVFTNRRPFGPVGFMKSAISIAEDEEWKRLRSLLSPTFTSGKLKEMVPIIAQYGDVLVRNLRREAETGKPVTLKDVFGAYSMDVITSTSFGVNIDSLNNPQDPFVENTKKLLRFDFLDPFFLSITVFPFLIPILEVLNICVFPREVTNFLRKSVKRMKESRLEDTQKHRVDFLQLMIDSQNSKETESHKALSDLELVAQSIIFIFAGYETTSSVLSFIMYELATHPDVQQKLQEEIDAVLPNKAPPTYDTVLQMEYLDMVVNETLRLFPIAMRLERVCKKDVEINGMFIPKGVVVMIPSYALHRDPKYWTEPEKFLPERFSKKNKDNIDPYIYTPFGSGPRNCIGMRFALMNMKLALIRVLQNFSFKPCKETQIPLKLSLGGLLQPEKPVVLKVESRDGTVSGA
Experimental: as §1

Compound	MIC (C. albicans) [ng/mL]	IC50 (CYP2C19) [µM]	IC50 (CYP2C9) [µM]	IC50 (CYP3A4) [µM]
OC(Cn1cncn1)(c1ccc(F)cc1F)C(F)(F)c1ccc(-c2ccc(F)cc2)cn1 (stereo not drawn) [Example 16, 2-(2,4-Difluorophenyl)-1,1-difluoro-1-(5-(4-fluorophenyl)pyridin-2-yl)-3-(1H-1,2,4-triazol-1-yl)propan-2-ol]	2 (≈ 4.48 nM)			
OC(Cn1cncn1)(c1ccc(F)cc1F)C(F)(F)c1ccc(-c2ccc(OCC(F)(F)F)cc2)cn1 (stereo not drawn) [Example 17, 2-(2,4-difluorophenyl)-1,1-difluoro-3-(1H-1,2,4-triazol-1-yl)-1-(5-(4-(2,2,2-trifluoroethoxy)phenyl)pyridin-2-yl)propan-2-ol]	≤ 1			
OC(Cn1cncn1)(c1ccc(F)cc1F)C(F)(F)c1ccc(-c2ccc(OC(F)(F)F)cc2)cn1 [Example 18, 2-(2,4-Difluorophenyl)-1,1-difluoro-3-(1H-1,2,4-triazol-1-yl)-L-(5-(4-(trifluoromethoxy)phenyl)pyridin-2-yl)propan-2-ol]	≤ 1	11	3.1	3.8
